Assays:
[1] = test system: Jurkat line (ACD4_38) expressing a C-peptide specific TCR; experiment: IL-2 secretion (ELISA) by TCR-transduced Jurkat line, peptide titration; format: cell-based, human; settings: clone ACD4_38, two independent experiments
Description: (§1) TCR-transduced T cells were cultured, in triplicate, in cRPMI/5% FBS at 2 × 10^4/well with an equal number of EBV-transformed B cells (see Supplementary Table 3) and different peptides (Purar Chemicals). See Supplementary Table 6 for a full list of peptides used in this study. The positive control was PMA (10 ng/mL) and ionomycin (500 ng/mL) in culture media. Negative controls had all cells, but no peptide. After overnight culture supernatant was collected for IL-2 ELISA.
ELISAs were performed using the ELISA MAX™ Deluxe set Human IL-2 (BioLegend) as per the manufacturer's instructions. Briefly, 96-well ELISA plates (Greiner Bio-One) were coated with 100μL/well of purified anti-human IL-2 antibody diluted 1:200. […] The reaction was stopped by the addition of 2 M H2SO4 solution (BioLegend) and optical density (OD) measured using a FLUOstar Omega microplate reader (BMG LabTech). The amount of IL-2 secreted was determined using a linear regression of all OD values (minus the background) of the standard curve. […]
To determine if C-peptide specific TCRs were more sensitive to Q to E variants of C-peptide we tested graded concentrations of wild type C-peptide and five deamidated variants. […] To compare the relative potency of the Q to E substituted peptides the responses were calculated as fold change relative to full-length, WT C-peptide (Fig. 2D). […]

[2] = test system: 18 Jurkat T-cell lines expressing C-peptide specific TCRs; experiment: IL-2 secretion (ELISA) by panel of 18 TCR-transduced Jurkat lines, peptide titration; format: cell-based, human; settings: Mann-Whitney test, Fig. 2H
Description: as §1
ELISAs were performed using the ELISA MAX™ Deluxe set Human IL-2 (BioLegend) as per the manufacturer's instructions. […] The reaction was stopped by the addition of 2 M H2SO4 solution (BioLegend) and optical density (OD) measured using a FLUOstar Omega microplate reader (BMG LabTech). The amount of IL-2 secreted was determined using a linear regression of all OD values (minus the background) of the standard curve. […]
Fig. 2 C-peptide specific TCR responses to deamidated C-peptide variants (A) Each peptide is referred to by the position, within C-peptide of the glutamine (Q), in bold, to glutamic acid (E), in red text, substitutions. […] (C) The EC50 for each peptide was calculated the and the EC50 from two independent experiments are shown. […] Statistical significance was determined using the Mann-Whitney test (ns, not significant, […], p < 0.05, **p < 0.01, ***p < 0.001). […]

Stimulation compared with WT C-peptide and the other single substituted peptides (EC50, IL-2) [1]	Difference in fold change in EC50 (relative to full-length C-peptide) between clones with overlapping and non-overlapping epitopes [2]	Sequence
dramatically less stimulatory		EAEDLQVGEVELGGGPGAGSLQPLALEGSLQ [Q9E, C-peptide variant with glutamine 9 substituted for glutamic acid]
dramatically less stimulatory		EAEDLEVGEVELGGGPGAGSLEPLALEGSLE [QallE, C-peptide with all four glutamines substituted for glutamic acid]
	no difference	EAEDLQVGQVELGGGPGAGSLQPLALEGSLE [Q31E, C-peptide variant with glutamine 31 substituted for glutamic acid]

Reference: PMC9811213, “Glutamine deamidation does not increase the immunogenicity of C-peptide in people with type 1 diabetes” (Journal of Translational Autoimmunity, 2022)
